From patent US6737383B1, “Herbicidal oxadiazolidines” (priority 1999, dated 2004)

Assays:
duck salad = assay: Test B flood test duck salad; format: in vivo, Heteranthera limosa
Procedure, shortened: (§1)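 Flood test on plants grown to the 2-leaf stage; treated plants kept in greenhouse twelve to sixteen days, then visually rated against controls on a 0 (no effect) to 10 (complete control) scale.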

rice = assay: Test B flood test rice; format: in vivo, Oryza sativa
Procedure, shortened: as §1

wild oat = assay: Test B pre/postemergence wild oat; format: in vivo, Avena fatua; conditions: for Plant response rating, Wild oats: Rate 250 g/ha
Procedure, shortened: (§2)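 Test chemicals in a non-phytotoxic solvent mixture with surfactant were sprayed preemergence onto planted seeds and postemergence onto plants 2 to 18 cm tall (1- to 4-leaf stage). After twelve to sixteen days in a greenhouse, injury was visually rated against untreated controls from 0 (no effect) to 10 (complete control).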

pigweed = assay: Test B pre/postemergence pigweed; format: in vivo, Amaranthus retroflexus
Procedure, shortened: as §2

sugar beet = assay: Test B pre/postemergence sugar beet; format: in vivo, Beta vulgaris; conditions: for Plant response rating, Sugarbeets: Rate 250 g/ha
Procedure, shortened: as §2

cocklebur = assay: Test B pre/postemergence cocklebur; format: in vivo, Xanthium strumarium
Procedure, shortened: as §2

surinam grass = assay: Test B pre/postemergence surinam grass; format: in vivo, Brachiaria decumbens
Procedure, shortened: as §2

purple nutsedge = assay: Test B pre/postemergence purple nutsedge; format: in vivo, Cyperus rotundus
Procedure, shortened: as §2

smallflower flatsedge = assay: Test B flood test smallflower flatsedge; format: in vivo, Cyperus difformis
Procedure, shortened: as §1

soybean = assay: Test B pre/postemergence soybean; format: in vivo, Glycine max
Procedure, shortened: as §2

bedstraw = assay: Test B pre/postemergence bedstraw; format: in vivo, Galium aparine
Procedure, shortened: as §2

giant foxtail = assay: Test B pre/postemergence giant foxtail; format: in vivo, Setaria faberii
Procedure, shortened: as §2

corn = assay: Test B pre/postemergence corn; format: in vivo, Zea mays
Procedure, shortened: as §2

wheat = assay: Test B pre/postemergence wheat; format: in vivo, Triticum aestivum; conditions: for Plant response rating, Wheat: Rate 250 g/ha
Procedure, shortened: as §2

velvetleaf = assay: Test B pre/postemergence velvetleaf; format: in vivo, Abutilon theophrasti; conditions: for Plant response rating, Velvetleaf: Rate 250 g/ha
Procedure, shortened: as §2

rape = assay: Test B pre/postemergence rape; format: in vivo, Brassica napus
Procedure, shortened: as §2

[1] = Postemergence (flood test species), Rate 125 g/ha, scale of 0 to 10 where 0 is no effect and 10 is complete control
[2] = Rate 62 g/ha, Postemergence section, flood test species, scale of 0 to 10 where 0 is no effect and 10 is complete control
[3] = Rate 500 g/ha, listed under Postemergence (flood test species), scale 0 to 10, 0 no effect, 10 complete control
[4] = Rate 250 g/ha, Postemergence (flood test), scale 0 to 10, 0 is no effect, 10 is complete control
[5] = Postemergence, Rate 125 g/ha, scale of 0 to 10 where 0 is no effect and 10 is complete control
[6] = Preemergence, Rate 62 g/ha, scale 0 to 10 (0 no effect, 10 complete control)
[7] = Preemergence, Rate 125 g/ha, 0 is no effect, 10 is complete control
[8] = Preemergence, scale of 0 to 10 where 0 is no effect and 10 is complete control
[9] = Preemergence, Rate 500 g/ha, scale 0 to 10 (0 no effect, 10 complete control)
[10] = Rate 62 g/ha, Postemergence, scale of 0 to 10 where 0 is no effect and 10 is complete control
[11] = Postemergence, scale 0 to 10, 0 is no effect, 10 is complete control
[12] = Rate 500 g/ha, Postemergence, scale 0 to 10, 0 no effect, 10 complete control
[13] = Preemergence, Rate 125 g/ha, scale 0 to 10 (0 no effect, 10 complete control)
[14] = Preemergence, Rate 250 g/ha, scale of 0 to 10 where 0 is no effect and 10 is complete control
[15] = Rate 250 g/ha, Postemergence, scale 0 to 10, 0 is no effect, 10 is complete control
[16] = Postemergence, Rate 250 g/ha, scale 0 to 10, 0 no effect, 10 complete control
[17] = Postemergence, Rate 62 g/ha, scale 0 to 10, 0 is no effect, 10 is complete control

Compound: CC(C)N(C(=O)n1oc(=O)n(C2CCCCC2)c1=O)c1ccc(F)cc1 [Compound 110]
- Ducksalad plant response rating (duck salad; [1]): 0
- Ducksalad plant response rating (duck salad; [2]): 0
- Ducksalad plant response rating (duck salad; [3]): 0
- Ducksalad plant response rating (duck salad; flood test, listed under Postemergence, Rate 250 g/ha, scale 0 to 10, 0 no effect, 10 complete control): 0
- Rice plant response rating (rice; [1]): 0
- Rice plant response rating (rice; [2]): 0
- Plant response rating, Rice (rice; [4]): 0
- Rice plant response rating (rice; [3]): 0
- Wild oats plant response rating (wild oat; [5]): 0
- Wild oats plant response rating (wild oat; [6]): 0
- Wild oats plant response rating (0 to 10 scale) (wild oat; [7]): 3
- Plant response rating, Wild oats (wild oat; [8]): 5
- Wild oats plant response rating (wild oat; [9]): 5
- Wild oats plant response rating (wild oat; [10]): 0
- Plant response rating, Wild oats (wild oat; [11]): 0
- Wild oats plant response rating (wild oat; [12]): 2
- Redroot pigweed plant response rating (pigweed; [5]): 4
- Redroot pigweed plant response rating (pigweed; [6]): 3
- Plant response rating, Redroot pigweed (pigweed; [13]): 6
- Plant response rating, Redroot pigweed (pigweed; [14]): 7
- Redroot pigweed plant response rating (pigweed; [9]): 8
- Redroot pigweed plant response rating (pigweed; [10]): 3
- Plant response rating, Redroot pigweed (pigweed; [15]): 5
- Redroot pigweed plant response rating (pigweed; [12]): 6
- Sugarbeets plant response rating (sugar beet; [5]): 3
- Sugarbeets plant response rating (sugar beet; [6]): 0
- Sugarbeets plant response rating (0 to 10 scale) (sugar beet; [7]): 1
- Plant response rating, Sugarbeets (sugar beet; [8]): 2
- Sugarbeets plant response rating (sugar beet; [9]): 5
- Sugarbeets plant response rating (sugar beet; [10]): 0
- Plant response rating, Sugarbeets (sugar beet; [11]): 3
- Sugarbeets plant response rating (sugar beet; [12]): 3
- Cocklebur plant response rating (cocklebur; [5]): 2
- Cocklebur plant response rating (cocklebur; [16]): 2
- Cocklebur plant response rating (cocklebur; [6]): 0
- Plant response rating, Cocklebur (cocklebur; [13]): 0
- Plant response rating, Cocklebur (cocklebur; [14]): 0
- Cocklebur plant response rating (cocklebur; [9]): 0
- Cocklebur plant response rating (cocklebur; [10]): 0
- Cocklebur plant response rating (cocklebur; [12]): 3
- B. signalgrass plant response rating (surinam grass; [17]): 0
- B. signalgrass plant response rating (surinam grass; [16]): 0
- B. signalgrass plant response rating (surinam grass; [6]): 3
- Plant response rating, B. signalgrass (surinam grass; [13]): 7
- B. signalgrass plant response rating (surinam grass; [9]): 7
- B. signalgrass plant response rating (surinam grass; Rate 125 g/ha, Postemergence, scale 0 to 10, 0 no effect, 10 complete control): 0
- B. signalgrass plant response rating (surinam grass; Rate 500 g/ha, Postemergence, scale of 0 to 10 where 0 is no effect and 10 is complete control): 3
- Nutsedge plant response rating (purple nutsedge; [5]): 0
- Nutsedge plant response rating (purple nutsedge; [16]): 0
- Nutsedge plant response rating (purple nutsedge; [6]): 0
- Plant response rating, Nutsedge (purple nutsedge; [13]): 0
- Plant response rating, Nutsedge (purple nutsedge; [14]): 0
- Nutsedge plant response rating (purple nutsedge; [9]): 0
- Nutsedge plant response rating (purple nutsedge; [10]): 0
- Nutsedge plant response rating (purple nutsedge; [12]): 0
- S. Flatsedge plant response rating (smallflower flatsedge; [1]): 0
- S. Flatsedge plant response rating (smallflower flatsedge; [2]): 0
- Plant response rating, S. Flatsedge (smallflower flatsedge; [4]): 0
- S. Flatsedge plant response rating (smallflower flatsedge; [3]): 0
- Soybean plant response rating (soybean; [5]): 3
- Soybean plant response rating (soybean; [6]): 1
- Plant response rating, Soybean (soybean; [13]): 5
- Plant response rating, Soybean (soybean; [14]): 5
- Soybean plant response rating (soybean; [9]): 6
- Soybean plant response rating (soybean; [10]): 3
- Plant response rating, Soybean (soybean; [15]): 5
- Soybean plant response rating (soybean; [12]): 7
- Bedstraw plant response rating (bedstraw; [17]): 2
- Bedstraw plant response rating (bedstraw; [16]): 8
- Bedstraw plant response rating (bedstraw; [6]): 0
- Plant response rating, Bedstraw (bedstraw; [13]): 4
- Plant response rating, Bedstraw (bedstraw; [14]): 5
- Bedstraw plant response rating (bedstraw; [9]): 7
- Giant foxtail plant response rating (giant foxtail; [5]): 2
- Giant foxtail plant response rating (giant foxtail; [16]): 5
- Giant foxtail plant response rating (giant foxtail; [6]): 10
- Plant response rating, Giant foxtail (giant foxtail; [13]): 10
- Plant response rating, Giant foxtail (giant foxtail; [14]): 10
- Giant foxtail plant response rating (giant foxtail; [9]): 10
- Giant foxtail plant response rating (giant foxtail; [10]): 0
- Giant foxtail plant response rating (giant foxtail; [12]): 8
- Corn plant response rating (corn; [5]): 0
- Corn plant response rating (corn; [16]): 0
- Corn plant response rating (corn; [6]): 2
- Plant response rating, Corn (corn; [13]): 3
- Plant response rating, Corn (corn; [14]): 4
- Corn plant response rating (corn; [9]): 4
- Corn plant response rating (corn; [10]): 0
- Corn plant response rating (corn; [12]): 4
- Wheat plant response rating (wheat; [5]): 0
- Wheat plant response rating (wheat; [6]): 0
- Wheat plant response rating (0 to 10 scale) (wheat; [7]): 0
- Plant response rating, Wheat (wheat; [8]): 0
- Wheat plant response rating (wheat; [9]): 3
- Wheat plant response rating (wheat; [10]): 0
- Plant response rating, Wheat (wheat; [11]): 0
- Wheat plant response rating (wheat; [12]): 1
- Velvetleaf plant response rating (velvetleaf; [5]): 0
- Velvetleaf plant response rating (velvetleaf; [6]): 0
- Velvetleaf plant response rating (0 to 10 scale) (velvetleaf; [7]): 5
- Plant response rating, Velvetleaf (velvetleaf; [8]): 5
- Velvetleaf plant response rating (velvetleaf; [9]): 7
- Velvetleaf plant response rating (velvetleaf; [10]): 0
- Plant response rating, Velvetleaf (velvetleaf; [11]): 1
- Velvetleaf plant response rating (velvetleaf; [12]): 2
- Rape plant response rating (rape; [5]): 4
- Rape plant response rating (rape; [16]): 4
- Rape plant response rating (rape; [6]): 0
- Plant response rating, Rape (rape; [13]): 1
- Plant response rating, Rape (rape; [14]): 4
- Rape plant response rating (rape; [9]): 8
- Rape plant response rating (rape; [10]): 2
- Rape plant response rating (rape; [12]): 6
